Some results are limits rather than exact numbers.

In the first assay the target is T1, full-length recombinant human NEK7 (Homo sapiens, UniProt Q8TDX7).
T1 construct: full-length recombinant human NEK7; GST (N); purchased SignalChem N09-10G; host or cells: Sf9 insect cells (baculovirus)
T1 sequence (Q8TDX7 whole entry): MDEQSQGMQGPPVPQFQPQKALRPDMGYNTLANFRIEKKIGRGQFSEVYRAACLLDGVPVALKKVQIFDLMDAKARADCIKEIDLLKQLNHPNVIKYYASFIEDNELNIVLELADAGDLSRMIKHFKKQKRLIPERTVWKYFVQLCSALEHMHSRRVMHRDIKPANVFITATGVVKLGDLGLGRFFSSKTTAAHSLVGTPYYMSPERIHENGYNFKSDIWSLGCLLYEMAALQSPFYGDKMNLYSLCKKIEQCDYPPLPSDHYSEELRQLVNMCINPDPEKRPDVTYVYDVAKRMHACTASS
In words: NEK7 enzymatic assay ([33P]-ATP, casein substrate). It is filed as biochemical. As to conditions: Table 2b; recombinant human NEK7, casein substrate. The protocol:
In some embodiments, the IC50 of the compounds of Structure (I), (Ia), (Ib), (Ic), (Id), (Ie), or (If) to inhibit NEK7 was determined by the concentration of the compound required to inhibit 50% of the activity of the NEK kinase.
(§1) Casein substrate (from bovine milk, hydrolyzed and partially dephosphorylated mixture of α, β and κ caseins, obtained from Sigma Aldrich, catalogue #C4765, diluted in distilled water to a final concentration of 1 mg/mL) and full-length recombinant human NEK7 (expressed by baculovirus in Sf9 insect cells using a N-terminal GST tag, obtained from SignalChem, catalogue #N09-10G, 0.1 μg/μL) were mixed in assay buffer (20 mM Hepes pH 7.5, 10 mM MgCl2, 1 mM EGTA, 0.02% Brij35, 0.02 mg/ml BSA, 0.1 mM Na3 VO4, 2 mM DTT, 1% DMSO). Compounds of interest (serial 3-fold dilution in DMSO from 10 μM to 0.5 nM) or vehicle (1% DMSO) were dispensed into the kinase reaction mixture by Acoustic technology (Echo550, nanoliter range). After incubation at room temperature for 20 minutes, the kinase reaction was initiated by addition of [^33P]-ATP (specific activity 10 μCi/μl) and the mixture was incubated at room temperature for 2 hours. The reaction was then stopped by spotting the reaction mixture on strips of phosphocellulose P81 paper. Following washing, the radioactivity of the P81 paper was measured and kinase activity data were expressed as the percent remaining kinase activity in test samples compared to vehicle reactions. IC50 values and curve fits were obtained using Prism (GraphPad Software).
as §1, with “μg/L)” for “μg/μL)”, “Na3VO4,” for “Na3 VO4,”, “(Echo550;” for “(Echo550,”
For orientation: IC50 means the concentration that inhibits the measured activity by half. As for `CC(C)(C)c1cc(NC(=O)NC2CCC(Oc3ccnc4[nH]ccc34)CC2)n(-c2ccccc2)n1` (centres unmarked) [Ib-16, 1-(4-((1H-pyrrolo[2,3-b]pyridin-4-yl)oxy)cyclohexyl)-3-(3-(tert-butyl)-1-phenyl-1H-pyrazol-5-yl)urea], the IC50 is greater than 1500 nM.

Regarding `O=C(Nc1ccc(Oc2ccnc3[nH]cc(Cl)c23)cc1F)Nc1cc(C2(C(F)(F)F)CC2)nn1-c1ccccc1` [Ib-17, 1-(4-((3-chloro-1H-pyrrolo[2,3-b]pyridin-4-yl)oxy)-2-fluorophenyl)-3-(1-phenyl-3-(1-(trifluoromethyl)cyclopropyl)-1H-pyrazol-5-yl)urea], the IC50 was greater than 1500 nM.

For the molecule `Cc1nc2c(Oc3ccc(NC(=O)Nc4cc(C(C)(C)C)nn4-c4ccccc4)c(F)c3)ccnc2[nH]1` [Ib-19, 1-(3-(tert-butyl)-1-phenyl-1H-pyrazol-5-yl)-3-(2-fluoro-4-((2-methyl-3H-imidazo[4,5-b]pyridin-7-yl)oxy)phenyl)urea], the IC50 is greater than 1500 nM.

For `CC(C)(C)c1cc(NC(=O)NC2CCC(Oc3ccnc4[nH]cc(Cl)c34)CC2)n(-c2ccccc2)n1` (centres unmarked) [Ib-20, 1-(3-(tert-butyl)-1-phenyl-1H-pyrazol-5-yl)-3-(4-((3-chloro-1H-pyrrolo[2,3-b]pyridin-4-yl)oxy)cyclohexyl)urea], the IC50 is greater than 1500 nM.

As for `CN1CCC(n2nc(C(C)(C)C)cc2NC(=O)Nc2ccc(Oc3ccnc4[nH]cc(Cl)c34)cc2F)CC1` [Ib-21, 1-(3-(tert-butyl)-1-(1-methylpiperidin-4-yl)-1H-pyrazol-5-yl)-3-(4-((3-chloro-1H-pyrrolo[2,3-?]pyridin-4-yl)oxy)-2-fluorophenyl)urea], the IC50 is greater than 1500 nM.

`CC(C)(C)c1cc(NC(=O)Cc2ccc(Oc3ccnc4[nH]cc(Cl)c34)cc2F)n(-c2ccccc2)n1` [Ib-22, N-(3-(tert-butyl)-1-phenyl-1H-pyrazol-5-yl)-2-(4-((3-chloro-1H-pyrrolo[2,3-b]pyridin-4-yl)oxy)-2-fluorophenyl)acetamide]: the IC50 was greater than 1500 nM.

Still in this assay, the particulars now being: Table 2d; recombinant human NEK7, casein substrate.
Turning to `Cc1cc(NC(=O)Nc2ccc(-c3nn(C(C)C)c4ncnc(N)c34)cc2)ccc1N1CCOCC1` [Id-1, 1-(4-(4-amino-1-isopropyl-1H-pyrazolo[3,4-J]pyrimidin-3-yl)phenyl)-3-(3-methyl-4-morpholinophenyl)urea], the IC50 was greater than 1500 nM.

On to `CCN1CCN(Cc2ccc(NC(=O)Nc3ccc(-c4nn(C5CC5)c5ncnc(N)c45)cc3F)cc2C(F)(F)F)CC1` [Id-7, 1-(4-(4-amino-t-cyclopropyl-1H-pyrazolo[3,4-d]pyrimidin-3-yl)-2-fluorophenyl)-3-(4-((4-ethylpiperazin-1-yl)methyl)-3-(trifluoromethyl)phenyl)urea], for which the IC50 was greater than 1500 nM.

For `Cc1cn(-c2ccc(NC(=O)Nc3ccc(-c4cn(C5CC5)c5ncnc(N)c45)cc3F)cc2C(F)(F)F)cn1` [Id-23], the IC50 is greater than 1500 nM.

On to `Nc1ncnc2c1c(-c1ccc(NC(=O)Nc3ccc(CN4CCOCC4)cc3F)c(F)c1)nn2C1CC1` [Id-26, 1-(4-(4-amino-1-cyclopropyl-1H-pyrazolo[3,4-d]pyrimidin-3-yl)-2-fluorophenyl)-3-(2-fluoro-4-(morpholinomethyl)phenyl)urea], for which the IC50 is greater than 1500 nM.

Turning to `CN1CCN(Cc2ccc(NC(=O)Nc3ccc(-c4nn(C5CC5)c5ncnc(N)c45)cn3)cc2C(F)(F)F)CC1` [Id-29, 1-(5-(4-amino-1-cyclopropyl-1H-pyrazolo[3,4-d]pyrimidin-3-yl)pyridin-2-yl)-3-(4-((4-methylpiperazin-1-yl)methyl)-3-(trifluoromethyl)phenyl)urea], the 50% inhibitory concentration (IC50) was in the range of 151 to 300 nM.

Regarding `Cc1cc(NC(=O)Nc2ccc(-c3cn(C4CC4)c4ncnc(N)c34)cc2F)ccc1N1CCOCC1` [Id-32, 1-(4-(4-amino-7-cyclopropyl-7H-pyrrolo[2,3-d]pyrimidin-5-yl)-2-fluorophenyl)-3-(3-methyl-4-morpholinophenyl)urea], the IC50 was greater than 1500 nM.

Turning to `CN1CCN(Cc2ccc(NC(=O)Nc3ccc(-c4cn(C5CC5)c5ncnc(N)c45)cc3Cl)cc2C(F)(F)F)CC1` [Id-34, 1-(4-(4-amino-7-cyclopropyl-7H-pyrrolo[2,3-d]pyrimidin-5-yl)-2-chlorophenyl)-3-(4-((4-methylpiperazin-1-yl)methyl)-3-(trifluoromethyl)phenyl)urea], the IC50 was in the range of 151 to 300 nM.

Take `CN1CCN(Cc2ccc(NC(=O)Nc3ccc(-c4cn(C5CC5)c5ncnc(N)c45)cc3F)cc2F)CC1` [Id-35, 1-(4-(4-amino-7-cyclopropyl-7H-pyrrolo[2,3-d]pyrimidin-5-yl)-2-fluorophenyl)-3-(3-fluoro-4-((4-methylpiperazin-1-yl)methyl)phenyl)urea]: the IC50 is 301 to 500 nM.

Turning to `CN1CCN(Cc2ccc(NC(=O)Nc3ccc(-c4cn(C5CC5)c5ncnc(N)c45)cc3F)cc2Cl)CC1` [Id-36, 1-(4-(4-amino-7-cyclopropyl-7H-pyrrolo[2,3-d]pyrimidin-5-yl)-2-fluorophenyl)-3-(3-chloro-4-((4-methylpiperazin-1-yl)methyl)phenyl)urea], the IC50 is less than 150 nM.

On to `COc1cc(NC(=O)Nc2ccc(-c3cn(C4CC4)c4ncnc(N)c34)cc2F)ccc1CN1CCN(C)CC1` [Id-37, 1-(4-(4-amino-7-cyclopropyl-7H-pyrrolo[2,3-d]pyrimidin-5-yl)-2-fluorophenyl)-3-(3-methoxy-4-((4-methylpiperazin-1-yl)methyl)phenyl)urea], for which the IC50 was greater than 1500 nM.

Regarding `CCN1CCN(Cc2ccc(NC(=O)Nc3ccc(-c4cn(C5CC5)c5ncnc(N)c45)cc3F)cc2C(F)(F)F)CC1` [Id-40, 1-(4-(4-amino-7-cyclopropyl-7H-pyrrolo[2,3-d]pyrimidin-5-yl)-2-fluorophenyl)-3-(4-((4-ethylpiperazin-1-yl)methyl)-3-(trifluoromethyl)phenyl)urea], the IC50 is less than 150 nM.

On to `Nc1ncnc2c1c(-c1ccc(NC(=O)Nc3ccc(CN4CCN(CCO)CC4)c(C(F)(F)F)c3)c(F)c1)cn2C1CC1` [Id-41, 1-(4-(4-amino-7-cyclopropyl-7H-pyrrolo[2,3-d]pyrimidin-5-yl)-2-fluorophenyl)-3-(4-((4-(2-hydroxyethyl)piperazin-1-yl)methyl)-3-(trifluoromethyl)phenyl)urea], for which the IC50 was less than 150 nM.

Regarding `COCCN1CCN(Cc2ccc(NC(=O)Nc3ccc(-c4cn(C5CC5)c5ncnc(N)c45)cc3F)cc2C(F)(F)F)CC1` [Id-42, 1-(4-(4-amino-7-cyclopropyl-7H-pyrrolo[2,3-d]pyrimidin-5-yl)-2-fluorophenyl)-3-(4-((4-(2-methoxyethyl)piperazin-1-yl)methyl)-3-(trifluoromethyl)phenyl)urea], the IC50 was less than 150 nM.

Consider `CN1CCCN(Cc2ccc(NC(=O)Nc3ccc(-c4cn(C5CC5)c5ncnc(N)c45)cc3F)cc2C(F)(F)F)CC1` [Id-43, 1-(4-(4-amino-7-cyclopropyl-7H-pyrrolo[2,3-d]pyrimidin-5-yl)-2-fluorophenyl)-3-(4-((4-methyl-1,4-diazepan-1-yl)methyl)-3-(trifluoromethyl)phenyl)urea], for which the IC50 was less than 150 nM.

Turning to `CN(C)C1CCN(Cc2ccc(NC(=O)Nc3ccc(-c4cn(C5CC5)c5ncnc(N)c45)cc3F)cc2C(F)(F)F)C1` (centres unmarked) [Id-44, 1-(4-(4-amino-7-cyclopropyl-7H-pyrrolo[2,3-d]pyrimidin-5-yl)-2-fluorophenyl)-3-(4-((3-(dimethylamino)pyrrolidin-1-yl)methyl)-3-(trifluoromethyl)phenyl)urea], the IC50 is less than 150 nM.

`Cc1cn(-c2ccc(NC(=O)Nc3ccc(-c4cn(C5CC5)c5ncnc(N)c45)cc3F)cc2C(F)(F)F)cn1` [Id-45, 1-(4-(4-amino-7-cyclopropyl-7H-pyrrolo[2,3-d]pyrimidin-5-yl)-2-fluorophenyl)-3-(4-(4-methyl-1H-imidazol-1-yl)-3-(trifluoromethyl)phenyl)urea]: the concentration for half-maximal inhibition (IC50) fell in the range of 501 to 1500 nM.

As to `CN1CCC(Oc2ccc(NC(=O)Nc3ccc(-c4cn(C5CC5)c5ncnc(N)c45)cc3F)cc2C(F)(F)F)CC1` [Id-46, 1-(4-(4-amino-7-cyclopropyl-7H-pyrrolo[2,3-d]pyrimidin-5-yl)-2-fluorophenyl)-3-(4-((1-methylpiperidin-4-yl)oxy)-3-(trifluoromethyl)phenyl)urea], the IC50 was less than 150 nM.
